These compounds were tested against T1, Mitogen-activated protein kinase kinase kinase 5 (Homo sapiens, UniProt Q99683) (assay: In Vitro Enzyme Activity: Reagents:Base Reaction Buffer: 20 mM Hepes (pH 7.5), 10 mM MgCl2, 1 mM EGTA, 0.02% Brij35, 0.02 mg/ml BSA, 0.1 mM Na3VO4, 2 mM DTT, 1% DMSOCompound Treatment:The test compound was formulated into a 10 mM stock solution in DMSO, which was diluted into 10 concentrations in 3-fold degression, and placed in a 384-well plate (Cyclic Olefin Copolymer LDV Echo®).Kinase Name: ASK1/MAP3K5 (Invitrogen, Carlsbad, Calif.)Type: Recombinant Human Full Length Protein, GST-taggedFinal concentration of the enzyme: 20 nMSubstrate: Myelin basic protein, MBP (Active Motif, Carlsbad, Calif.)Final concentration of the substrate: 20 μMExperimental Operations:1. The substrate was dissolved in a freshly prepared base reaction buffer.2. A desired coenzyme was added to the above substrate solution.3. The kinase was added to the substrate solution and mixed slowly.4. The solution of the test compound in DMSO was added to the kinase reaction solution and incubated at room temperature for 20 minutes.5. 33P-ATP (specific activity of 10 μCi/μl) was added to the reaction solution to initiate the reaction.6. Incubated at room temperature for 2 hours.7. A small portion of the reactants was placed onto a P-81 ion exchange filter paper.8. The filter paper was washed three times with 0.75% […] to wash off the unbound phosphate, and then the filter paper was dried.9. The radioactivity remaining on the filter paper was determined.10. Kinase activity data was expressed as the ratio of the kinase activity remaining in the test sample to the kinase activity in the vehicle (DMSO).).
T1 sequence (Q99683 whole entry): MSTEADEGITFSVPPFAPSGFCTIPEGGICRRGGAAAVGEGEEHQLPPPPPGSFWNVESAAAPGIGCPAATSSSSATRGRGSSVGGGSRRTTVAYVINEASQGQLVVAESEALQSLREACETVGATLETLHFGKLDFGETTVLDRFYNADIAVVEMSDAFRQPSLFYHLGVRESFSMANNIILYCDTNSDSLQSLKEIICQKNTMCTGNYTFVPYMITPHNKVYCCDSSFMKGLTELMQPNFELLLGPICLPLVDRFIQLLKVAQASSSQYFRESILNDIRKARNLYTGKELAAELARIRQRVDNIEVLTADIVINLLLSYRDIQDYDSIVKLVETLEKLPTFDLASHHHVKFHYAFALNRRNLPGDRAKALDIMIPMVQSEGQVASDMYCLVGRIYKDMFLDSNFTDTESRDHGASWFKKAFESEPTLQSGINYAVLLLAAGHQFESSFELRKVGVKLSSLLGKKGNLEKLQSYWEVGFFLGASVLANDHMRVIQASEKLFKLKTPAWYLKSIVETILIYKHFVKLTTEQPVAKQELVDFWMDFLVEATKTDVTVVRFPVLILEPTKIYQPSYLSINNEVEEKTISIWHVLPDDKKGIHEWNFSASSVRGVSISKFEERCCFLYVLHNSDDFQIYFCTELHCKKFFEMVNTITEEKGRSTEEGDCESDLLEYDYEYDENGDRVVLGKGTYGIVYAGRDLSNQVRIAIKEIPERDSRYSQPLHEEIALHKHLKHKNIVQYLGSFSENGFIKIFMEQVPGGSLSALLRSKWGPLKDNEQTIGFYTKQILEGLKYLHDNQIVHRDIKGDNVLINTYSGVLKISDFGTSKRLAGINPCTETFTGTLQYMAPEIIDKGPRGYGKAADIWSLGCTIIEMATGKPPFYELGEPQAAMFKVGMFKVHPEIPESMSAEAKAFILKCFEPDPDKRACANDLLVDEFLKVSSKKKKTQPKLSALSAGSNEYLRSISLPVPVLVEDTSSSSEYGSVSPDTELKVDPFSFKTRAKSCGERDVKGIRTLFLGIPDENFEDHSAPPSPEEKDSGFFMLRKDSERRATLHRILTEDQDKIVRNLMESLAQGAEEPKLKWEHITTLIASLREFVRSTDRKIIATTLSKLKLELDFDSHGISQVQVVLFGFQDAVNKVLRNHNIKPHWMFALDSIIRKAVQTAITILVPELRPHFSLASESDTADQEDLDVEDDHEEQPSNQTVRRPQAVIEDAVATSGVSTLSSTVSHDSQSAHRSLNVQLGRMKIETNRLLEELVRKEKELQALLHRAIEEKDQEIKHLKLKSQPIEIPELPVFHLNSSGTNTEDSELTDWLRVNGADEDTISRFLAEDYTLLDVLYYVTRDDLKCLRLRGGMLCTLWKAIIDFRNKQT

IC50, < 50 nM:
CC(C)n1cnnc1-c1cccc(N2CCc3cc(Cl)c(-n4cnc(C5CC5)c4)cc3C2=O)n1
CC(C)c1cc2ncn(-c3cccc(-c4nncn4C(C)C)n3)c(=O)c2cc1-n1cnc(C2CC2)c1
CCc1cn(-c2cc3c(=O)n(-c4cccc(-c5nncn5C(C)C)n4)cnc3cc2C)cn1

Source: ChEMBL document CHEMBL5727981, “ASK1 inhibitor and preparation method and use thereof” (2020)
